Paper PMC3897169 (MedChemComm, 2013)

What follows are molecules tested against T1, L3MBTL3 (Homo sapiens, UniProt Q96JM7) (assay: AlphaScreen methylated histone peptide competition assay). Conditions: compared with UNC2533; 12 and 13 after incubation time of 30 minutes.
T1 sequence (Q96JM7 225-555 limits assumed): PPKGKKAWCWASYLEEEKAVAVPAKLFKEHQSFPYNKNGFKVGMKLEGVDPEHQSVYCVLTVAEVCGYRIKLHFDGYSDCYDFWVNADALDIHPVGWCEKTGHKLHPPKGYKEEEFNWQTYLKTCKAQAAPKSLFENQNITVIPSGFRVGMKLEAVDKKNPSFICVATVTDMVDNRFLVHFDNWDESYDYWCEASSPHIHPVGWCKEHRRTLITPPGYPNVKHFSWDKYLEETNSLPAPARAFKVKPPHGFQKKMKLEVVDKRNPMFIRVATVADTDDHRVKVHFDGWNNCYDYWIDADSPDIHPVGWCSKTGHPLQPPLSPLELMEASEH
Format: binding

Fold drop in L3MBTL3 activity (AlphaScreen) relative to UNC2533	Structure (SMILES)
9 fold	c1cc(N2CCC(N3CCCCC3)CC2)ccc1CCN1CCCC1 [compound 2]
20 fold	c1cc(CN2CCCC2)ccc1CCN1CCCC1 [compound 7]
more than 30 fold	O=C(CCc1ccc(N2CCC(N3CCCC3)CC2)cc1)N1CCCC1 [compound 8]
about 5 fold	c1cc(N2CCC(N3CCCC3)CC2)ccc1N1CCC(N2CCCC2)CC1 [compound 10]
5 fold	N#CC1CCN(CCc2ccc(N3CCC(N4CCCC4)CC3)cc2)C1 (stereo not shown) [compound 12]
5 fold	O=C1CCN(CCc2ccc(N3CCC(N4CCCC4)CC3)cc2)C1 [compound 13]

Each molecule was assayed against T1, L3MBTL3 (assay: Isothermal titration calorimetry). Conditions: compared with UNC2533.
Format: binding

Fold loss in L3MBTL3 activity by ITC relative to UNC2533 [fold]	Structure (SMILES)
7	c1cc(N2CCC(N3CCCCC3)CC2)ccc1CCN1CCCC1 [compound 2]
